Measurements reported in article PMC3749181, “Rapid Identification of Antifungal Compounds against Exserohilum rostratum Using High Throughput Drug Repurposing Screens” (PLoS ONE, 2013).
Read-outs that look alike come from different tables or passages of the source.

Legend:
[1] = tested on: E. rostratum hyphal fragments; assay: hyphal fragment fungicidal ATP content assay (PBS, 1536-well); assay type: cell-based, Exserohilum rostratum; conditions: for Hyphae % Max. Resp. / Emax / Hyphae % M. Res.: 46 µM Amphotericin B = 100%; for IC50: read-out: Hyphae IC50
Experimental: (§1) Conidia and hyphae of E. rostratum were obtained as described by Richard et al., with the following modifications. Briefly, conidia were harvested from Potato Dextrose Agar (PDA) cultured media with 0.05% Tween 80, and the conidial suspension was filtered using a Cell Strainer (100 µm, BD Falcon REF 352340). After centrifugation at 700g for 10 min, the suspension was decanted and conidia were resuspended at 1×10^5 per ml in RPMI and counted in a hemocytometer. Hyphae were harvested from yeast extract peptone dextrose (YPD) culture media with 0.05% Tween 80. Hyphal fragments were sized by vortexing 15 sec twice with 0.4 mm glassbeads, and the hyphae suspension was filtered by cheese cloth twice. […] To normalize concentrations of hyphal fragments for batch to batch consistency, carbohydrate analysis was performed by a phenol-sulfuric acid method as previously described. The final stock concentration of hyphae was adjusted to 1.0 (OD490) per 100 µl.
(§2) The ATPLite assay kit, consisting of luciferase/luciferin and detergent, was used to quantitate cellular ATP levels as a marker for cell viability (Table 1). For assay development, hyphal fragments or conidia in PBS were plated in a seeding density of 3,750, 7,500 and 15,000 cellular particles/well with a final volume of 5 µl/well using the Multidrop-Combi dispenser in white 1536-well plates. Conidia or hyphae fragments were incubated for 24 h at 37°C in a 5% CO2 humidified atmosphere. ATPLite detection reagents were added at 4 µl/well. The assay plates were incubated at room temperature for 15 minutes before reading luminescence intensity on a ViewLux plate reader (Perkin Elmer, Waltham, MA). Conidia suspended in RPMI medium were inoculated at concentrations of 62.5, 125 and 250 conidia/well with a final volume of 5 µl/well in white 1536-well plates. The conidia assay was developed and optimized in the same way as the hyphal assay.
(§3) The LOPAC library (Sigma-Aldrich) has been extensively used for HTS assay validations, [18]. The NIH Chemical Genomics Center Pharmaceutical (NPC) collection was constructed in-house through a combined effort of compound purchasing and custom synthesis and recently expanded to 4096 compounds. […] 2.5 µl/well PBS was dispensed into 1536-well plates using a Multidrop-Combi dispenser. Compound in DMSO solution was transferred in a volume of 23 nl/well using a NX-TR pintool station (WAKO Scientific Solutions, San Diego, CA). This additional PBS step for compound addition was designed to prevent the potential fungal contamination of compound libraries. The hyphal fragments in PBS were then added at 2.5 µl/well for a final seeding density of 15,000 hyphal fragments/well using the Multidrop-Combi dispenser. The final compound concentration was 46 µM in the primary screen. The assay plates were incubated for 24 h at 30°C before the detection of cellular viability with the ATP content assay. Screen of conidia was performed in a similar way except that PBS was replaced with RPMI medium and conidia were plated for a final seeding density of 250 conidia/well.
(§4) The primary screen data and curve fitting were analyzed using software developed internally at the NIH Chemical Genomics Center (NCGC). Total signals for cellular viability (100% cellular viability) were calculated from the wells with DMSO solvent and the complete cell killing (0% cellular viability) was calculated from 46 µM amphotericin B treated wells. […] All values were expressed as the mean +/− SD (n≥3).

E. rostratum conidia = assay: conidia growth inhibition ATP content assay (RPMI, 1536-well); assay type: cell-based, Exserohilum rostratum; conditions: for Conidia % Max. Resp. / Emax / Conidia % M. Res.: 46 µM Amphotericin B = 100%; for IC50: read-out: Conidia IC50
Experimental: as §1, §2, §3, §4

SH-SY5Y cells = assay: SH-SY5Y cytotoxicity counter-screen (ATP content assay); assay type: cell-based, Human; conditions: for SH-SY5Y % Max. Resp.: Table 2, SH-SY5Y, inact. = no significant activity at 46 µM; for SH-SY5Y % M. Res.: Inact. = no significant activity at 46 µM
Experimental: Human neuroblastoma SH-SY5Y cell line (Catalog No. CRL-2266) was purchased from ATCC (Manassas, VA). SH-SY5Y cell line was cultured in 175-cm^2 tissue culture flasks (Costar, Cambridge, MA) with 30 ml of growth medium at 37°C in a 5% CO2 humidified atmosphere. Growth medium was made with Dulbecco's Modified Eagle Medium: Nutrient Mixture F-12 with 10% fetal bovine serum (FBS). Growth medium was replaced every other day and cells were passed at 75% confluence.
as §2
Two small known compound libraries including the LOPAC (1280 compounds) and approved drugs (4096 compounds) were screened in parallel using the above optimized assays for hyphae and conidia in 1536-well plates (Fig. 4). […] A mammalian SH-SY5Y cell line was used in parallel as a counter-screen with the same ATP content assay kit to assess the specificity of these compounds for E. rostratum.

[2] = Table 2, inact. = no significant activity in the primary screen
[3] = Table 2, 24 h, inact. = no significant activity in the primary screen
[4] = Table 2, inact. = no significant activity at 46 µM
[5] = Table 2, 24 h, inact. = no significant activity at the highest compound concentration (46 µM)
[6] = Exserohilum rostratum, 24 h, Table 2, 24 h, inact. = no significant activity at the highest compound concentration (46 µM)
[7] = Exserohilum rostratum, Table 2, inact. = no significant activity at 46 µM, read-out: Conidia % Max. Resp.
[8] = Exserohilum rostratum, Table S1, Inact. = no significant activity in the primary screen, read-out: Hyphae % M. Res.
[9] = Exserohilum rostratum, Table S1, Inact. = no significant activity in the primary screen
[10] = Exserohilum rostratum, Table S1, Inact. = no significant activity at 46 µM, read-out: Conidia % M. Res.
[11] = Table S1, 46 µM Amphotericin B = 100%
[12] = Table S1, Inact. = no significant activity in the primary screen
[13] = Table S1, Inact. = no significant activity at 46 µM
[14] = Table S1, Inact. = no significant activity at the highest compound concentration (46 µM)
[15] = Exserohilum rostratum, Table 2, inact. = no significant activity in the primary screen, read-out: Hyphae % Max. Resp.
[16] = Exserohilum rostratum, Table 2, 24 h, inact. = no significant activity in the primary screen

Compound	Hyphae % Max. Resp. [1, 2]	Hyphae IC50 [1, 3]	SH-SY5Y % Max. Resp. (SH-SY5Y cells; 46 µM Amphotericin B = 100%)	SH-SY5Y % Max. Resp. (SH-SY5Y cells)	IC50 (E. rostratum conidia; [6])	Emax (E. rostratum conidia; [7])	SH-SY5Y % M. Res. (SH-SY5Y cells; [11])	also measured
C[CH2][Hg][S]c1ccccc1C(=O)[O-].[Na+] [Thimerosal]	inact.	inact.	96%	2.63%	–	–	–	Conidia % Max. Resp. (E. rostratum conidia; [4]): 102%; IC50 (E. rostratum conidia; [5]): 139 nM
O=C1[O][Pt]2([NH][C@@H]3CCCC[C@H]3[NH]2)[O]C1=O [Oxaliplatin]	76%	–	inact.	inact.	–	–	–	IC50 [1, 3]: 935 nM; Conidia % Max. Resp. (E. rostratum conidia; [4]): 95%; IC50 (E. rostratum conidia): 4950 nM
CCCCCCCCCCCCCC[N+](C)(C)C [Tetradonium bromide]	inact.	inact.	inact.	inact.	2440 nM	103%	–	–
CN(C)C(=S)SC(=S)N(C)C [Tetramethylthiuram monosulfide]	–	–	–	–	–	–	Inact.	Emax [1, 8]: 59%; IC50 [1, 9]: 67900 nM; IC50 (E. rostratum conidia; Exserohilum rostratum): 3400 nM; Emax (E. rostratum conidia; [10]): 23%; SH-SY5Y IC50 (SH-SY5Y cells): Inact.
Oc1c(I)cc(Cl)c2cccnc12 [Clioquinol]	inact.	inact.	60%	37.2%	975 nM	103%	–	–
Cc1ccc2c(Br)cc(Br)c(O)c2n1 [Broquinaldol]	inact.	inact.	inact.	inact.	7750 nM	101%	–	–
Cc1cccc(N(C)C(=S)Oc2ccc3c(c2)CCC3)c1 [Tolindate]	–	–	–	–	–	–	Inact.	Hyphae % M. Res. [1, 12]: Inact.; Hyphae IC50 [1, 12]: Inact.; Conidia % M. Res. (E. rostratum conidia; [13]): Inact.; Conidia IC50 (E. rostratum conidia; [14]): Inact.; SH-SY5Y IC50 (SH-SY5Y cells; [14]): Inact.
Oc1c(Br)cc(Br)c2cccnc12 [Broxyquinoline]	–	–	100%	58.9%	1600 nM	98%	–	Emax [1, 15]: 96%; IC50 [1, 16]: 4510 nM
CNc1ccc2oc(C[C@H]3O[C@@]4(CC[C@H]3C)O[C@H]([C@H](C)C(=O)c3ccc[nH]3)[C@H](C)C[C@H]4C)nc2c1C(=O)O [Calcimycin]	inact.	inact.	94%	3.95%	–	51%	–	IC50 (E. rostratum conidia; Exserohilum rostratum, 24 h): 735 nM
Oc1c(Cl)cc(Cl)cc1Sc1cc(Cl)cc(Cl)c1O [Bithionol]	inact.	inact.	inact.	inact.	1870 nM	100%	–	–
Clc1ccc(C2(Cn3cncn3)OCCO2)c(Cl)c1 [Azaconazole]	–	–	–	–	–	–	Inact.	Emax [1, 8]: 64%; IC50 [1, 9]: 46900 nM; Conidia IC50 (E. rostratum conidia): Inact.; Conidia % M. Res. (E. rostratum conidia; [13]): Inact.; SH-SY5Y IC50 (SH-SY5Y cells): Inact.
Sc1nc2ccccc2s1 [2-Mercaptobenzothiazole]	–	–	–	–	–	–	Inact.	Hyphae % M. Res. [1, 12]: Inact.; Hyphae IC50 [1, 12]: Inact.; Conidia % M. Res. (E. rostratum conidia; [13]): Inact.; Conidia IC50 (E. rostratum conidia; [14]): Inact.; SH-SY5Y IC50 (SH-SY5Y cells; [14]): Inact.
CC(C)(C)c1cc(C=C(C#N)C#N)cc(C(C)(C)C)c1O [Tyrphostin A9]	inact.	inact.	61%	18.6%	1980 nM	100%	–	–
N[C@@H](COP(=O)(O)O)C(=O)O [Dexfosfoserine]	–	–	–	–	–	–	Inact.	Hyphae % M. Res. [1, 12]: Inact.; Hyphae IC50 [1, 12]: Inact.; Conidia % M. Res. (E. rostratum conidia; [13]): Inact.; Conidia IC50 (E. rostratum conidia; [14]): Inact.; SH-SY5Y IC50 (SH-SY5Y cells; [14]): Inact.
N=C(N)c1ccc(OCCCCCOc2ccc(C(=N)N)cc2)cc1 [Pentamidine isethionate]	–	–	inact.	inact.	1110 nM	108%	–	Emax [1, 15]: 82%; IC50 [1, 16]: 468 nM
Bleomycin sulfate	inact.	inact.	inact.	inact.	–	–	–	Conidia % Max. Resp. (E. rostratum conidia; [4]): 98%; IC50 (E. rostratum conidia): 1240 nM
O=C1C2CC=CCC2C(=O)N1SC(Cl)(Cl)Cl (stereo not shown) [Captan]	–	–	100%	18.6%	–	–	–	Emax [1, 15]: 82%; IC50 [1, 16]: 1170 nM; Conidia % Max. Resp. (E. rostratum conidia; [4]): inact.; Conidia IC50 (E. rostratum conidia; [5]): inact.
Clc1ccc(C(Cn2ccnc2)OCc2ccsc2Cl)c(Cl)c1 (stereo not shown) [Tioconazole]	–	–	inact.	inact.	8550 nM	101%	Inact.	Emax [1, 15]: 100%; IC50 [1, 16]: 5970 nM; Emax [1, 8]: 100%; Emax (E. rostratum conidia; [10]): 101%; SH-SY5Y IC50 (SH-SY5Y cells; [14]): Inact.
CC(=O)[O][Hg][c]1ccccc1 [Phenylmercuric acetate]	inact.	inact.	96%	0.417%	–	–	–	Conidia % Max. Resp. (E. rostratum conidia; [4]): 99%; IC50 (E. rostratum conidia; [5]): 146 nM
Nc1[nH]c(=O)ncc1F [Flucytosine]	–	–	–	–	–	–	Inact.	Hyphae % M. Res. [1, 12]: Inact.; Hyphae IC50 [1, 12]: Inact.; Conidia % M. Res. (E. rostratum conidia; [13]): Inact.; Conidia IC50 (E. rostratum conidia; [14]): Inact.; SH-SY5Y IC50 (SH-SY5Y cells; [14]): Inact.
CCCCCCOc1ccccc1C(N)=O [Exalamide]	–	–	–	–	–	–	Inact.	Hyphae % M. Res. [1, 12]: Inact.; Hyphae IC50 [1, 12]: Inact.; Conidia % M. Res. (E. rostratum conidia; [13]): Inact.; Conidia IC50 (E. rostratum conidia; [14]): Inact.; SH-SY5Y IC50 (SH-SY5Y cells; [14]): Inact.
